Experimental data published in ChEMBL document CHEMBL1275533, “In vitro antibacterial activity of vertilmicin and its susceptibility to modifications by the recombinant AAC6'-APH2'' enzyme” (2008).
Converted amounts (≈) assume the structure as drawn. The source made the active and inactive calls. The rule behind the calls is not given here.

Experiments:
Enterococcus faecalis [1] = assay: Antibacterial activity against gentamicin-resistant Enterococcus faecalis clinical isolate after 18 hrs by agar dilution method; assay type: functional
Citrobacter koseri [2] = assay: Antibacterial activity against non-gentamicin-resistant Citrobacter diversus clinical isolate assessed as susceptible isolates after 18 hrs by agar dilution method; assay type: functional
Citrobacter koseri [3] = assay: Antibacterial activity against gentamicin-resistant Citrobacter diversus clinical isolate after 18 hrs by agar dilution method; assay type: functional
Proteus mirabilis [4] = assay: Antibacterial activity against non-gentamicin-resistant Proteus mirabilis clinical isolate after 18 hrs by agar dilution method; assay type: functional
Enterococcus faecalis [5] = assay: Antibacterial activity against gentamicin-resistant Enterococcus faecalis clinical isolate assessed as susceptible isolates after 18 hrs by agar dilution method; assay type: functional, organism-based
Pseudomonas aeruginosa = assay: Antibacterial activity against gentamicin-resistant Pseudomonas aeruginosa clinical isolate assessed as susceptible isolates after 18 hrs by agar dilution method; assay type: functional
[6] = system: Staphylococcus epidermidis; assay: Antibacterial activity against gentamicin-resistant Staphylococcus epidermidis clinical isolate after 18 hrs by agar dilution method; assay type: functional
Providencia rettgeri [7] = assay: Antibacterial activity against non-gentamicin-resistant Proteus rettgeri clinical isolate assessed as susceptible isolates after 18 hrs by agar dilution method; assay type: functional
Klebsiella aerogenes [8] = assay: Antibacterial activity against non-gentamicin-resistant Enterobacter aerogenes clinical isolate after 18 hrs by agar dilution method; assay type: functional
Proteus mirabilis [9] = assay: Antibacterial activity against gentamicin-resistant Proteus mirabilis clinical isolate assessed as susceptible isolates after 18 hrs by agar dilution method; assay type: functional
[10] = system: Acinetobacter calcoaceticus; assay: Antibacterial activity against non-gentamicin-resistant Acinetobacter calcoaceticus clinical isolate after 18 hrs by agar dilution method; assay type: functional
Providencia rettgeri [11] = assay: Antibacterial activity against non-gentamicin-resistant Proteus rettgeri clinical isolate after 18 hrs by agar dilution method; assay type: functional
Klebsiella aerogenes [12] = assay: Antibacterial activity against gentamicin-resistant Enterobacter aerogenes clinical isolate assessed as susceptible isolates after 18 hrs by agar dilution method; assay type: functional
Staphylococcus aureus [13] = assay: Antibacterial activity against non-gentamicin-resistant Staphylococcus aureus clinical isolate after 18 hrs by agar dilution method; assay type: functional
Klebsiella pneumoniae = assay: Antibacterial activity against non-gentamicin-resistant Klebsiella pneumoniae clinical isolate assessed as susceptible isolates after 18 hrs by agar dilution method; assay type: functional
Serratia marcescens = assay: Antibacterial activity against non-gentamicin-resistant Serratia marcescens clinical isolate assessed as susceptible isolates after 18 hrs by agar dilution method; assay type: functional
Providencia rettgeri [14] = assay: Antibacterial activity against gentamicin-resistant Proteus rettgeri clinical isolate assessed as susceptible isolates after 18 hrs by agar dilution method; assay type: functional
Escherichia coli [15] = assay: Antibacterial activity against non-gentamicin-resistant Escherichia coli clinical isolate assessed as susceptible isolates after 18 hrs by agar dilution method; assay type: functional
Escherichia coli [16] = assay: Antibacterial activity against gentamicin-resistant Escherichia coli clinical isolate after 18 hrs by agar dilution method; assay type: functional
Morganella morganii = assay: Antibacterial activity against non-gentamicin-resistant Morganella morganii clinical isolate assessed as susceptible isolates after 18 hrs by agar dilution method; assay type: functional
Haemophilus influenzae = assay: Antibacterial activity against non-gentamicin-resistant Haemophilus influenzae clinical isolate assessed as susceptible isolates after 18 hrs by agar dilution method; assay type: functional, organism-based
Staphylococcus aureus [17] = assay: Antibacterial activity against non-gentamicin-resistant Staphylococcus aureus clinical isolate assessed as susceptible isolates after 18 hrs by agar dilution method; assay type: functional
[18] = system: Escherichia coli BL21(DE3); assay: Ratio of Vmax to Km for AAC(6')-APH(2'') in Escherichia coli BL21(DE3) assessed as oxidation of NADH by pyruvate kinase relative to netilmicin
[19] = system: Escherichia coli BL21(DE3); assay: Phosphorylation activity of AAC(6')-APH(2'') in Escherichia coli BL21(DE3) assessed as oxidation of NADH by pyruvate kinase relative to verdamicin

Row | SMILES | MIC50 (Enterococcus faecalis [1]) | MIC90 (Enterococcus faecalis [1]) | Activity (Citrobacter koseri [2]) | MIC50 (Citrobacter koseri [3]) | MIC90 (Citrobacter koseri [3]) | MIC50 (Proteus mirabilis [4]) | MIC90 (Proteus mirabilis [4]) | Activity (Enterococcus faecalis [5]) | Activity (Pseudomonas aeruginosa) | MIC50 [6] | MIC90 [6] | Activity (Providencia rettgeri [7]) | MIC50 (Klebsiella aerogenes [8]) | MIC90 (Klebsiella aerogenes [8]) | Activity (Proteus mirabilis [9]) | MIC50 [10] | MIC90 [10] | MIC50 (Providencia rettgeri [11]) | MIC90 (Providencia rettgeri [11]) | Activity (Klebsiella aerogenes [12]) | further results
1 | NCC[C@H](O)C(=O)N[C@@H]1C[C@H](N)[C@@H](O[C@H]2O[C@H](CN)[C@@H](O)[C@H](O)[C@H]2O)[C@H](O)[C@H]1O[C@H]1O[C@H](CO)[C@@H](O)[C@H](N)[C@H]1O [AMIKACIN] | 128 µg/mL (≈ 219 µM) | > 128 µg/mL | 100% | 32 µg/mL (≈ 54.6 µM) | 64 µg/mL (≈ 109 µM) | 2 µg/mL (≈ 3.42 µM) | 4 µg/mL (≈ 6.83 µM) | inactive | 85.3% | 4 µg/mL (≈ 6.83 µM) | 64 µg/mL (≈ 109 µM) | 84.6% | 1 µg/mL (≈ 1.71 µM) | 2 µg/mL (≈ 3.42 µM) | 63.6% | 0.5 µg/mL (≈ 0.854 µM) | 2 µg/mL (≈ 3.42 µM) | 2 µg/mL (≈ 3.42 µM) | 32 µg/mL (≈ 54.6 µM) | 55% | MIC50 (Staphylococcus aureus [13]): 1 µg/mL (≈ 1.71 µM); MIC90 (Staphylococcus aureus [13]): 2 µg/mL (≈ 3.42 µM); Activity (Klebsiella pneumoniae): 100%; Activity (Serratia marcescens): 96.3%; Activity (Providencia rettgeri [14]): 80%; Activity (Escherichia coli [15]): 100%; MIC50 (Escherichia coli [16]): 1 µg/mL (≈ 1.71 µM); MIC90 (Escherichia coli [16]): 4 µg/mL (≈ 6.83 µM); Activity (Morganella morganii): 96%; Activity (Haemophilus influenzae): inactive; Activity (Staphylococcus aureus [17]): 100%
2 | CCN[C@@H]1C[C@H](N)[C@@H](O[C@H]2OC(CN)=CC[C@H]2N)[C@H](O)[C@H]1O[C@H]1OC[C@](C)(O)[C@H](NC)[C@H]1O [NETILMICIN] | 4 µg/mL (≈ 8.41 µM) | > 128 µg/mL | 100% | > 128 µg/mL | > 128 µg/mL | 1 µg/mL (≈ 2.1 µM) | 2 µg/mL (≈ 4.21 µM) | inactive | 2.9% | 2 µg/mL (≈ 4.21 µM) | 32 µg/mL (≈ 67.3 µM) | 92.3% | 0.5 µg/mL (≈ 1.05 µM) | 1 µg/mL (≈ 2.1 µM) | 36.4% | 1 µg/mL (≈ 2.1 µM) | 16 µg/mL (≈ 33.6 µM) | 2 µg/mL (≈ 4.21 µM) | 8 µg/mL (≈ 16.8 µM) | 30% | Vmax/Km [18]: 7.4%; Vmax [19]: 55%; MIC50 (Staphylococcus aureus [13]): 0.25 µg/mL (≈ 0.526 µM); MIC90 (Staphylococcus aureus [13]): 16 µg/mL (≈ 33.6 µM); Activity (Klebsiella pneumoniae): 94%; Activity (Serratia marcescens): 96.3%; Activity (Providencia rettgeri [14]): 40%; Activity (Escherichia coli [15]): 100%; MIC50 (Escherichia coli [16]): 8 µg/mL (≈ 16.8 µM); MIC90 (Escherichia coli [16]): 64 µg/mL (≈ 135 µM); Activity (Morganella morganii): 100%; Activity (Haemophilus influenzae): inactive; Activity (Staphylococcus aureus [17]): 88.3%
